Source: paper PMC10445290, “Enantiomeric Fractions Reveal Differences in the Atropselective Disposition of 2,2′,3,5′,6-Pentachlorobiphenyl (PCB 95) in Wildtype, Cyp2abfgs-Null, and CYP2A6-Humanized Mice” (Chemical Research in Toxicology, 2023)
Read-outs that look alike come from different tables or passages of the source.

Legend:
[1] = set-up: method as in PMID 26463278; details: male Wistar rats, sub-acute oral exposure; cited from earlier work
[2] = cited from earlier work
[3] = Levels of PCB 95 and its hydroxylated metabolites in adipose, blood, brain and liver 24 h after a single oral dose (GC-MS/MS); assay type: in vivo, mice; details: for Levels in blood / Levels in adipose / Levels in liver / concentration at 24 h: 1 mg/kg; for concentration at 24 h: po
Method: Adult male and female wild-type (WT) C57BL/6 mice, KO, and KI mice (4 months old) were exposed to racemic PCB 95. Mice were randomly assigned to exposure groups and received a single oral dose of PCB 95 (1.0 mg/kg) in stripped corn oil (10 mL/kg; lot# A0395699; cat# 801-03-7; Fisher Scientific) via gavage (5–7 mice per group). Control animals received corn oil alone (1–3 mice per group) to assess the potential background contamination with PCB 95. Animals were euthanized 24 h after PCB 95 exposure. Blood was collected from the heart and placed in pre-weighed glass vials with 80 μL of ethylenediaminetetraacetic acid solution (EDTA, 7.5%, w/w). The amount of blood in each vial was determined by weight prior to sample extraction. Adipose, brain, and liver tissues were excised from each animal and individually wrapped in aluminum foil. Samples were stored at −80 °C in separate plastic bags and shipped on dry ice to the University of Iowa for analysis.
PCB 95 and its hydroxylated metabolites were extracted from adipose (0.06 ± 0.01 g), brain (0.19 ± 0.03 g) and liver tissues (0.49 ± 0.07 g) by pressurized liquid extraction (PLE) with a Dionex ASE200 system (Dionex, Sunnyvale, CA, USA).[45] Tissues were homogenized with 2 g of pre-cleaned diatomaceous earth (Thermo Fisher Scientific, Pittsburgh, PA, USA) and placed in extraction cells loaded with 10 g of pre-extracted Florisil (60–100 mesh, Fisher Scientific, Pittsburgh, PA, USA). Tissue samples were then spiked with recovery standards [50 ng of PCB 117 in 50 μL of isooctane and 50 ng of 4′-159 (2′,3,3′,5,5′,6′-hexachlorobiphenyl-4-ol) in 50 μL of methanol]. For ongoing precision recovery (OPR) samples; recovery standard, internal standard, PCB 95, and its metabolites (50 ng each) were spiked to the method blank (DE only) and tissues from control animals. Cells were extracted with hexane–dichloromethane–methanol (48:43:9, v/v/v) at 100 °C and 1500 psi (10 MPa), with preheat equilibration for 6 min, 60% of cell flush volume, and 1 static cycle of 5 min. The extracts were concentrated to approximately 1 mL with a TurboVap II (Biotage, LLC, NC, USA) and transferred to new glass tubes with 1 mL of hexane. The solvent was evaporated to near dryness under a gentle stream of nitrogen, and extracts were redissolved in 1 mL of hexane.
PCB 95 and its hydroxylated metabolites were extracted from whole blood (0.45 ± 0.13 g) using a published liquid–liquid extraction procedure.[29] Briefly, blood samples were thawed, and 3 mL of aqueous 1% KCl solution was added to each sample. Recovery standards (50 ng of PCB 117 in 50 μL of isooctane and 50 ng of 4′-159 in 50 μL of methanol) were spiked to all samples, including OPR samples, before extraction. Subsequently, 1 mL of 6 M HCl, 5 mL of 2-propanol, and 5 mL of 1:1 hexane–MTBE mixture (v/v) were added to the blood samples. The samples were inverted for 5 min and centrifuged at 1690g for 5 min to facilitate the phase separation. Next, the organic phases were transferred to new glass tubes, and the aqueous phases were re-extracted with 3 mL of hexane. Next, three mL of aqueous 1% KCl were added to the combined organic extracts, and samples were inverted and centrifuged as described above. The organic phase was transferred to a new tube, and the aqueous phase was re-extracted with 3 mL of hexane. The combined organic extracts were evaporated to near dryness using a Savant SpeedVac SPD210 (Thermo Scientific, Waltham, MA, US), and each sample was reconstituted with 0.5 mL of hexane.
Five drops of methanol and 0.5 mL of diazomethane (CH2N2; about 0.1 mmol) in diethyl ether were added to the tissue or blood extracts to derivatize the OH-PCBs.[45] Diazomethane rapidly converts the phenolic hydroxyl groups of OH-PCBs to methoxy groups (i.e., −OH → −OCH3). All samples were stored at 4 °C for approximately 16 h. Excess diazomethane evaporated under a gentle stream of nitrogen in a fume hood, followed by adding 0.5 mL of hexane. […]

[4] = collected in 2001 from Japanese women
[5] = MKI, male CYP2A6-humanized mice, single oral PCB 95 1.0 mg/kg, mean ± SD
[6] = MWT, male wildtype mice, single oral PCB 95 1.0 mg/kg, mean ± SD

Structure (SMILES): Clc1ccc(Cl)c(-c2c(Cl)ccc(Cl)c2Cl)c1 [PCB 95, 2,2′,3,5′,6-pentachlorobiphenyl]
- PCB 95 levels in adipose tissue [1]: 9300 ng/g
- PCB 95 levels in blood [1]: 9 ng/g
- PCB 95 levels in the cerebellum [1]: 51 ng/g
- PCB 95 levels in the cortex [1]: 29 ng/g
- PCB 95 levels in the liver [1]: 120 ng/g
- PCB 95 concentration in maternal serum ([2]; MARBLES cohort, detected in only one sample): 0.1 ng/g wet weight
- PCB 95 in human adipose tissue ([2]; collected 2008 to 2009 during abdominal operations, Southeast China): below the limit of detection
- PCB 95 in breast adipose tissue [2, 4]: below the detection limit
- PCB 95 in serum [2, 4]: below the detection limit
- Average PCB 95 levels in postmortem brain tissues ([2]; older donors aged 58 to 80, United States): 0.13 ng/g
- PCB 95 in human liver samples ([2]; small human cohort from Belgium (N = 11)): below the limit of detection
- PCB 95 in postmortem brain tissues ([2]; younger donors aged 0 days to 1 year): not detected
- Levels in blood ([3]; FKO, female Cyp2abfgs-null mice, single oral PCB 95 1.0 mg/kg, mean ± SD): 9 ng/g tissue
- Levels in adipose ([3]; FWT, female wildtype mice, single oral PCB 95 1.0 mg/kg, mean ± SD): 1300 ng/g tissue
- Levels in blood [3, 5]: 16 ng/g tissue
- Levels in liver [3, 5]: 183 ng/g tissue
- Levels in adipose ([3]; MKO, male Cyp2abfgs-null mice, single oral PCB 95 1.0 mg/kg, mean ± SD): 690 ng/g tissue
- Levels in adipose [3, 6]: 1300 ng/g tissue
- Levels in liver [3, 6]: 96 ng/g tissue
- Kp at 24 h ([3]; both sexes, C57BL/6 (wild-type), KO and KI, mouse, adipose / whole blood, all six exposure groups, single oral 1.0 mg/kg, read-out: Mean adipose levels, times higher than the blood levels): 42 to 68
- concentration at 24 h ([3]; both sexes, C57BL/6 (wild-type), KO and KI, mouse, brain, range across all three genotypes and both sexes, single oral 1.0 mg/kg, read-out: PCB 95 levels in the whole brain): 13 to 21 ng/g
- concentration at 24 h ([3]; female, C57BL/6 (wild-type), mouse, adipose, FWT, female wildtype mice, single oral PCB 95 1.0 mg/kg, mean ± SD, read-out: Levels in adipose): 1310 ± 405 ng/g
- concentration at 24 h ([3]; female, C57BL/6 (wild-type), mouse, brain, FWT, female wildtype mice, single oral PCB 95 1.0 mg/kg, mean ± SD, read-out: Levels in brain): 19.2 ± 7.3 ng/g
- concentration at 24 h ([3]; female, C57BL/6 (wild-type), mouse, liver, FWT, female wildtype mice, single oral PCB 95 1.0 mg/kg, mean ± SD, read-out: Levels in liver): 120 ± 42.1 ng/g
- concentration at 24 h ([3]; female, C57BL/6 (wild-type), mouse, whole blood, FWT, female wildtype mice, single oral PCB 95 1.0 mg/kg, mean ± SD, read-out: Levels in blood): 9.1 ± 2.7 ng/g
- concentration at 24 h ([3]; female, CYP2A6-humanized (KI), mouse, adipose, FKI, female CYP2A6-humanized mice, single oral PCB 95 1.0 mg/kg, mean ± SD, read-out: Levels in adipose): 824 ± 458 ng/g
- concentration at 24 h ([3]; female, CYP2A6-humanized (KI), mouse, brain, FKI, female CYP2A6-humanized mice, single oral PCB 95 1.0 mg/kg, mean ± SD, read-out: Levels in brain): 19.7 ± 6.8 ng/g
- concentration at 24 h ([3]; female, CYP2A6-humanized (KI), mouse, liver, FKI, female CYP2A6-humanized mice, single oral PCB 95 1.0 mg/kg, mean ± SD, read-out: Levels in liver): 114 ± 44.1 ng/g
- concentration at 24 h ([3]; female, CYP2A6-humanized (KI), mouse, whole blood, FKI, female CYP2A6-humanized mice, single oral PCB 95 1.0 mg/kg, mean ± SD, read-out: Levels in blood): 12.9 ± 15.4 ng/g
- concentration at 24 h ([3]; female, Cyp2abfgs-null (KO), mouse, adipose, FKO, female Cyp2abfgs-null mice, single oral PCB 95 1.0 mg/kg, mean ± SD, read-out: Levels in adipose): 859 ± 317 ng/g
- concentration at 24 h ([3]; female, Cyp2abfgs-null (KO), mouse, brain, FKO, female Cyp2abfgs-null mice, single oral PCB 95 1.0 mg/kg, mean ± SD, read-out: Levels in brain): 20.6 ± 8.2 ng/g
- concentration at 24 h ([3]; female, Cyp2abfgs-null (KO), mouse, liver, FKO, female Cyp2abfgs-null mice, single oral PCB 95 1.0 mg/kg, mean ± SD, read-out: Levels in liver): 109 ± 29.7 ng/g
- concentration at 24 h ([3]; female, Cyp2abfgs-null (KO), mouse, whole blood, FKO, female Cyp2abfgs-null mice, single oral PCB 95 1.0 mg/kg, mean ± SD, read-out: Levels in blood): 8.6 ± 4.2 ng/g
- concentration at 24 h ([3]; male, C57BL/6 (wild-type), mouse, adipose, MWT, male wildtype mice, single oral PCB 95 1.0 mg/kg, mean ± SD, read-out: Levels in adipose): 1320 ± 297 ng/g
- concentration at 24 h ([3]; male, C57BL/6 (wild-type), mouse, brain, MWT, male wildtype mice, single oral PCB 95 1.0 mg/kg, mean ± SD, read-out: Levels in brain): 19.3 ± 4 ng/g
- concentration at 24 h ([3]; male, C57BL/6 (wild-type), mouse, liver, MWT, male wildtype mice, single oral PCB 95 1.0 mg/kg, mean ± SD, read-out: Levels in liver): 96.3 ± 31.7 ng/g
- concentration at 24 h ([3]; male, C57BL/6 (wild-type), mouse, whole blood, MWT, male wildtype mice, single oral PCB 95 1.0 mg/kg, mean ± SD, read-out: Levels in blood): 14.1 ± 2 ng/g
- concentration at 24 h ([3]; male, CYP2A6-humanized (KI), mouse, adipose, MKI, male CYP2A6-humanized mice, single oral PCB 95 1.0 mg/kg, mean ± SD, read-out: Levels in adipose): 734 ± 355 ng/g
- concentration at 24 h ([3]; male, CYP2A6-humanized (KI), mouse, brain, MKI, male CYP2A6-humanized mice, single oral PCB 95 1.0 mg/kg, mean ± SD, read-out: Levels in brain): 13.3 ± 5.7 ng/g
- concentration at 24 h ([3]; male, CYP2A6-humanized (KI), mouse, liver, MKI, male CYP2A6-humanized mice, single oral PCB 95 1.0 mg/kg, mean ± SD, read-out: Levels in liver): 183 ± 190 ng/g
- concentration at 24 h ([3]; male, CYP2A6-humanized (KI), mouse, whole blood, MKI, male CYP2A6-humanized mice, single oral PCB 95 1.0 mg/kg, mean ± SD, read-out: Levels in blood): 15.6 ± 18.3 ng/g
- concentration at 24 h ([3]; male, Cyp2abfgs-null (KO), mouse, adipose, MKO, male Cyp2abfgs-null mice, single oral PCB 95 1.0 mg/kg, mean ± SD, read-out: Levels in adipose): 692 ± 93 ng/g
- concentration at 24 h ([3]; male, Cyp2abfgs-null (KO), mouse, brain, MKO, male Cyp2abfgs-null mice, single oral PCB 95 1.0 mg/kg, mean ± SD, read-out: Levels in brain): 13.1 ± 6.1 ng/g
- concentration at 24 h ([3]; male, Cyp2abfgs-null (KO), mouse, liver, MKO, male Cyp2abfgs-null mice, single oral PCB 95 1.0 mg/kg, mean ± SD, read-out: Levels in liver): 146 ± 42.6 ng/g
- concentration at 24 h ([3]; male, Cyp2abfgs-null (KO), mouse, whole blood, MKO, male Cyp2abfgs-null mice, single oral PCB 95 1.0 mg/kg, mean ± SD, read-out: Levels in blood): 10.6 ± 7.4 ng/g
